Entries after “also recorded” stand apart in the source; their conditions may differ. Where two headings read alike, the source gives them in different places.
What was measured:
[1] = biological target: T1, V-ATPase (purified from enterococci or recombinant E. coli) (Enterococcus hirae, UniProt P43439+P43457); test: ATPase activity measurement (molybdenum blue method, primary screening); type: biochemical
T1 construct: made in house; host or cells: Enterococcus hirae (native) or recombinant E. coli
Procedure: The ATPase activity can be measured by a molybdenum blue method for measuring absorbance of the inorganic phosphoric acid generated by hydrolysis of ATP. As the reaction conditions, conditions for measuring the ATPase activity can be adopted. As the buffer solution used in the reaction, Tris-HCl buffer can be used. The reaction time is usually 10 to 60 minutes, but can be appropriately adjusted depending on the air temperature or the like. The reaction of V-ATPase is terminated with the addition of a surfactant such as sodium dodecyl sulfate (SDS), and into which a color-developing liquid (such as ferrous sulfate) is added to give a color, and then the concentration of the inorganic phosphoric acid can be calculated by the measurement of the absorbance at a wavelength of 650 nm.
From the concentration of inorganic phosphoric acid calculated above, the inhibition rate of the V-ATPase reaction can be calculated. That is, a graph is created in which the inhibition rate is plotted on the vertical axis and the concentration of compound is plotted on the horizontal axis, and the concentration (IC50) at which the inhibition rate becomes 50% is determined. As the concentration of compound at which IC50 is obtained becomes lower, a higher V-ATPase inhibitory effect is exerted with a small amount, and accordingly, the compound can be taken as a candidate compound for the inhibitor for V-ATPase activity.
The V-ATPase was prepared by the method disclosed in the following papers. • Paper 1: Takeshi Murata, et. al, “Purification and Reconstitution of Na^+-translocating Vacuolar ATPase from Enterococcus hirae”, J. Biol. Chem. 272, 24885-24890 (1997) • Paper 2: Takeshi Murata, et. al, “Torque Generation of Enterococcus hirae V-ATPase”, J. Biol. Chem. 289, 31212-31223 (2014)
ATPase activity measurement was conducted by a molybdenum blue method that quantifies the inorganic phosphoric acid generated by hydrolysis of ATP with the use of absorbance measurement. The measurement was conducted in a 96-well plate, and 0.05% DDM (n-dodecyl-β-D-maltoside), 10 μg/mL of V-ATPase (purified from enterococci or recombinant E. coli), and 20 μM of a compound were added into a buffer (100 mM Tris-HCl at pH 8.5, 100 mM NaCl, 5 mM MgSO4, 10% glycerol). Into the mixture obtained above, ATP was added so as to be 5 mM, the whole amount was set to 100 μL, the reaction was started while stirring the mixture with a stirrer, and the reaction time was set to 30 minutes. Since the ATPase activity changes largely depending on the reaction temperature, the reaction time was adjusted within the range of 10 to 60 minutes corresponding to the air temperature on the day of the experiment. With the addition of 50 μL of 20% SDS, the V-ATPase was denatured and the reaction was terminated, and into the resultant mixture, 75 μL of color-developing liquid (5% ferrous sulfate, 1.6% ammonium molybdate, and 1 M sulfuric acid) was added to give a color. Immediately, the absorbance at a wavelength of 650 nm was measured by using a plate reader. Four kinds of KH2PO4 aqueous solutions of 0.2 mM, 0.5 mM, 1.0 mM, and 1.5 mM were reacted with MQ (ultrapure water) in the same experiment system, and then the activity of V-ATPase was measured by determining the concentration of generated inorganic phosphoric acid with the use of a created calibration curve. In this regard, a compound that had inhibited 50% or more of the activity of V-ATPase was diluted stepwisely so as to have a concentration of 10 μM, 5 μM, 2 μM, 1 μM, 500 nM, 200 nM, 100 nM, and 50 nM, and the measurement similar to the above was conducted.
From the results of the above measurement of ATPase activity, the inhibition rate was calculated comparing the decrease in the activity by assuming the activity under the condition of no compound addition as 100. A graph was created in which the inhibition rate was plotted on the vertical axis and the concentration of compound was plotted on the horizontal axis (FIG. 2). […]

[2] = system: enterococci (Enterococcus hirae); test: Growth experiment of enterococci (secondary screening), OD600 at pH 7.0 and pH 8.5; type: cell-based; parameters: Growth inhibition rate (%): concentration or dose not given beside the values; details: for Specificity: growth inhibition at pH 8.5 versus pH 7.0
Procedure: In the culture of enterococci (Enterococcus hirae), a culture medium in which the Na^+ concentration had been adjusted by adding a buffer solution using 2% tryptone and 1% yeast extract as the base was used. In a case of adding glucose, glucose prepared in a 50% solution was added so as to be 1% into the culture medium when the culture medium was used. The whole amount 200 μL was cultured using a 96-well plate, and OD600 was measured every hour by using a plate reader. By using culture media at pH 7.0 and pH 8.5, the effect of pH on the growth was observed. In culture of bacteria, the pH often fluctuates largely due to the decomposition of the sugars required for the growth, and it is extremely important to maintain a constant pH in this experiment, and therefore, the pH was maintained constant with the addition of a buffer suitable for each pH. Since the V-ATPase is expressed only under an alkaline condition, the growth inhibition observed with the addition of an inhibitor is largely dependent on the pH.
IC50 and the like of the above 24 kinds of compounds are described in the following table. […] Furthermore, with respect to the symbol “n.a.”, a compound having a growth inhibition rate of 60% or more at pH 7.0 is determined that there was the growth inhibition. In addition, the growth inhibition rate of a compound having no clear inhibition is also recorded for reference.

[3] = system: Enterococcus faecalis (vancomycin-resistant enterococci, VRE); test: Growth inhibition of pathogenic bacteria, VRE E. faecalis; type: cell-based; details: pH 7.0, pH 7.5, pH 8.0; OD600
Procedure: (§1) As the pathogenic bacteria, Enterococcus faecalis and Enterococcus faecium that are vancomycin-resistant enterococci (VRE), and Clostridium difficile that leads to deterioration of intestinal environment and is resistant to multiple drugs were prepared. The VRE were cultured by using culture media at pH 7.0, pH 7.5, and pH 8.0, the C. difficile was cultured by using culture media at pH 6.5, pH 7.0, and pH 7.5, and the difference in the number of bacteria was confirmed by measuring OD600.
(§2) The data of pH 7.0, pH 7.5, and pH 8.0 are shown in order from the top of FIG. 6. […] The data of pH 6.5, pH 7.0, and pH 7.5 are shown in order from the top of FIG. 7.

[4] = system: Enterococcus faecium (vancomycin-resistant enterococci, VRE); test: Growth inhibition of pathogenic bacteria, VRE E. faecium; type: cell-based; details: pH 7.0, pH 7.5, pH 8.0; OD600
Procedure: as §1, §2

Clostridium difficile = test: Growth inhibition of pathogenic bacteria, C. difficile; type: cell-based; details: pH 6.5, pH 7.0, pH 7.5; OD600
Procedure: as §1, §2

[5] = Oral administration to mice (intestinal environment), toxicity observation; type: in vivo; details: 20 mM suspension, 0.5 ml orally once a day, five days
Procedure: To each of four mice, 0.5 ml of the suspension was orally administered once a day, and on five days after the start of administration, the mice were dissected and the feces and intestinal tract contents were collected, and the intestinal pH and sodium ion concentration were measured.

E. faecium of VRE = test: Test in VRE-infected mice, number of live VRE in the intestine; type: in vivo; details: antibiotic-treated mice infected with E. faecium VRE
Procedure: Mice treated with antibiotics were infected with E. faecium of VRE, and V-161 was administered to the mice.

[6] = IC50 (nM), Table 2, inhibition of V-ATPase ATPase activity, pH 8.5 buffer
[7] = IC50 (nM), Table 3, 2-phenyl benzimidazole derivatives
[8] = Table 2, E. hirae growth, pH not stated (media pH 7.0 and pH 8.5)
[9] = Table 3, 2-phenyl benzimidazole derivatives
[10] = Table 2, inhibition of V-ATPase ATPase activity, pH 8.5 buffer, read-out: IC50

SMILES: Cc1ccc2nc(-c3ccc(N(C)C)cc3)[nH]c2c1 [Compound V-161, N,N-dimethyl-4-(6-methyl-1H-benzo[d]imidazol-2-yl)aniline]
- IC50 [1, 6]: 85 nM
- IC50 [1, 7]: 85 nM
- IC50 ([1]; high affinity for V-ATPase (IC50), unit inferred): ≤ 400 nM
- non-specific inhibition / non-specific bond [2]: no non-specific inhibition
- Growth inhibition rate (%) [2, 8]: 88.7%
- Specificity ([2]; Table 2): + (there was no growth inhibition at pH 7.0 but was the growth inhibition at pH 8.5)
- Growth inhibition rate (%) [2, 9]: 88.7%
- Specificity ([2]; Table 3): + (there was no growth inhibition at pH 7.0 but was the growth inhibition at pH 8.5)
- growth of E. faecalis (VRE) (FIG. 6) [3]: inhibited in a pH-dependent manner
- growth of E. faecium (VRE) (FIG. 6) [4]: inhibited in a pH-dependent manner; also recorded: more strongly affected by the V-161 than E. faecalis
- growth of C. difficile (FIG. 7) (Clostridium difficile): inhibited even under a neutral or acidic condition
- toxicity in mice [5]: toxicity was not observed
- decrease of VRE in the cecum, large intestine, and feces versus controls (FIG. 10) (E. faecium of VRE; cecum, large intestine, feces): around 50%
- decrease of VRE in the small intestine versus controls (FIG. 10) (E. faecium of VRE; small intestine): 97%

SMILES: O=C(c1cnc(Nc2nc3ccccc3o2)nc1)c1cc(Cl)cc(Cl)c1O [Compound V-207]
- IC50 [1, 10]: 5000 nM
- Growth inhibition rate (%) [2, 8]: 12.0%
- Specificity ([2]; Table 2): − (there was no growth inhibition in any case)

SMILES: CCCCC1CCC(C(=O)Oc2ccc(C=O)c(O)c2)CC1 (stereo not shown) [Compound V-149]
- IC50 [1, 10]: 4500 nM
- Growth inhibition rate (%) [2, 8]: 90.5%
- Specificity ([2]; Table 2): n.a. (there was the growth inhibition in any case)

SMILES: CCC(C)C1OC2(CCC1C)CC1CC(CC=C(C)C(OC3CC(OC)C(OC4CC(OC)C(O)C(C)O4)C(C)O3)C(C)C=CC=C3COC4C(O)C(C)=CC(C(=O)O1)C34O)O2 (stereo not shown) [Compound V-85]
- IC50 [1, 6]: 10000 nM
- Growth inhibition rate (%) [2, 8]: 66.4%
- Specificity ([2]; Table 2): + (there was no growth inhibition at pH 7.0 but was the growth inhibition at pH 8.5)

SMILES: CN(C)c1ccc2nc3ccc(N(C)C)cc3[s+]c2c1 [Compound V-27]
- IC50 [1, 6]: 3000 nM
- Growth inhibition rate (%) [2, 8]: 64.0%
- Specificity ([2]; Table 2): + (there was no growth inhibition at pH 7.0 but was the growth inhibition at pH 8.5)

SMILES: CCCc1ccc(OCc2nc(-c3ccc(NC(=O)c4cccs4)cc3)no2)cc1 [Compound V-234-01]
- IC50 ([1]; IC50 (nM), Table 4, (1,2,4-oxadiazol-3-yl)phenyl derivatives): 50 nM
- Growth inhibition rate (%) ([2]; Table 4, (1,2,4-oxadiazol-3-yl)phenyl derivatives): 76.9%

SMILES: CCCCCCCCc1ccc(O)c(C=O)c1 [Compound V-91]
- IC50 [1, 10]: 850 nM
- Growth inhibition rate (%) [2, 8]: 90.9%
- Specificity ([2]; Table 2): n.a. (there was the growth inhibition in any case)

SMILES: Cc1ccc2[nH]c(-c3ccc(N4CCCC4)cc3)nc2c1 [Compound V-161-01]
- IC50 [1, 7]: 50 nM
- Growth inhibition rate (%) [2, 9]: 89.7%
- Specificity ([2]; Table 3): + (there was no growth inhibition at pH 7.0 but was the growth inhibition at pH 8.5)

SMILES: CCc1ccc(-c2nc3cc(C)ccc3[nH]2)cc1 [Compound V-161-02]
- IC50 ([1]; Table 3, 2-phenyl benzimidazole derivatives, read-out: IC50): 120 nM
- Growth inhibition rate (%) [2, 9]: 88.5%
- Specificity ([2]; Table 3): + (there was no growth inhibition at pH 7.0 but was the growth inhibition at pH 8.5)
